Assay [1] addresses T1, PTPN2 (Homo sapiens, UniProt P17706).
T1 construct: expressed in transfected cells; host or cells: 293T (293T.109 HiBiT-PTPN2 line; parental 293T WT from ATCC)
T1 sequence (P17706 1-415): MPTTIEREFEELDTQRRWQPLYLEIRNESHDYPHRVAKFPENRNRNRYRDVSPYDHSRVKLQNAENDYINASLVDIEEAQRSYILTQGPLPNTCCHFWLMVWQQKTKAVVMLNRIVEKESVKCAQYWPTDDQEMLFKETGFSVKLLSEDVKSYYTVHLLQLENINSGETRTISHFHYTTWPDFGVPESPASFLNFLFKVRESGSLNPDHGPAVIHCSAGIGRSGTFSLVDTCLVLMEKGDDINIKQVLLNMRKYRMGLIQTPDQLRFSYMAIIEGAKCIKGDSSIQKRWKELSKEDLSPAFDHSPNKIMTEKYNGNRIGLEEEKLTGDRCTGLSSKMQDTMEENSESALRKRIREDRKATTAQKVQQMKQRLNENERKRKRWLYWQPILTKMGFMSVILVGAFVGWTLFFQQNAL
In words: HiBiT-Degradation 293T.109 PTPN2 (Nano-Glo HiBiT Lytic Assay). Type of assay: cell-based. As to conditions: 293T.109 (HiBiT-PTPN2) cells, 24.0 hours. From the text: Dulbecco's modified Eagle medium (DMEM) without phenol red and fetal bovine serum (FBS) were purchased from Gibco (Grand Island, NY, USA). Nano-Glo® HiBIT Lytic Assay System was purchased from Promega (Madison, WI, USA). 293T.109 (HiBiT-PTPN2) cell line was generated by ectopically expressing PTPN2 with N-terminal HiBiT fusion tag in 293T WT cell line purchased from ATCC (Manassas, VA, USA). Cell culture flasks and 384-well microplates were acquired from VWR (Radnor, PA, USA).
PTPN2 degradation was determined based on quantification of luminescent signal using Nano-Glo® HiBIT Lytic Assay kit. Test compounds were added to the 384-well plate from a top concentration of 10 μM with 11 points, half log titration in duplicates. 293T.109 cells were added into 384-well plates at a cell density of 5000 cells per well. The plates were kept at 37° C. with 5% CO2 for 24 hours. The cells treated in the absence of the test compound were the negative control and the cells without Nano-Glo® HiBiT Lytic reagent were the positive control. After 24-hour incubation, Nano-Glo® HiBIT Lytic Assay reagents were added to the cells. Luminescence was acquired on EnVision™ Multilabel Reader (PerkinElmer, Santa Clara, CA, USA).

In assay [2] the test system is PTPN2. The assay is described as follows: HiBiT-Degradation B16F10.4 PTPN2. Type of assay: cell-based. As to conditions: B16F10.4 cells, 24.0 hours.

The structures appear in SMILES notation.

In general, DC50 refers to the concentration giving 50% degradation. The low end stands for degradation at low concentration, the high end for degradation only at high concentration.

`Cn1c(=O)n(C2CCC(=O)NC2=O)c2ccc([C@H]3CC[C@@H](CNC(=O)c4ccc5c(F)c(N6CC(=O)NS6(=O)=O)c(O)cc5c4)CC3)cc21` (single isomer, unassigned) [Example 75]: the DC50 in assay [1] and in assay [2] was 50 to 200 nM each time.

Consider `Cn1c(=O)n(C2CCC(=O)NC2=O)c2ccc([C@H]3CC[C@H](CNC(=O)c4ccc5c(F)c(N6CC(=O)NS6(=O)=O)c(O)cc5c4)CC3)cc21` (single isomer, unassigned) [Example 76], for which the DC50 in assay [1] fell in the range of 10 to 50 nM; in assay [2], 50 to 200 nM.

On to `Cn1c(=O)n(C2CCC(=O)NC2=O)c2ccc([C@H]3CC[C@@H](CC(=O)Nc4ccc5c(F)c(N6CC(=O)NS6(=O)=O)c(O)cc5c4)CC3)cc21` (single isomer, unassigned) [Example 81a, N-(6-(1,1-dioxido-4-oxo-1,2,5-thiadiazolidin-2-yl)-5-fluoro-7-hydroxynaphthalen-2-yl)-2-((1s,4s)-4-(1-(2,6-dioxopiperidin-3-yl)-3-methyl-2-oxo-2,3-dihydro-1H-benzo[d]imidazol-5-yl)cyclohexyl)acetamide], for which the DC50 in assay [1] and in assay [2] was 10 to 50 nM in each case.

Regarding `Cn1c(=O)n(C2CCC(=O)NC2=O)c2ccc([C@H]3CC[C@H](CC(=O)Nc4ccc5c(F)c(N6CC(=O)NS6(=O)=O)c(O)cc5c4)CC3)cc21` (single isomer, unassigned) [Example 81b, N-(6-(1,1-dioxido-4-oxo-1,2,5-thiadiazolidin-2-yl)-5-fluoro-7-hydroxynaphthalen-2-yl)-2-((1r,4r)-4-(1-(2,6-dioxopiperidin-3-yl)-3-methyl-2-oxo-2,3-dihydro-1H-benzo[d]imidazol-5-yl)cyclohexyl)acetamide], the 50% degradation concentration (DC50) in assay [1] lay within 10 to 50 nM; in assay [2], 200 to 1000 nM.

On to `Cn1nc(C2CCC(=O)NC2=O)c2ccc([C@H]3CC[C@H](CC(=O)Nc4ccc5c(F)c(N6CC(=O)NS6(=O)=O)c(O)cc5c4)CC3)cc21` (single isomer, unassigned) [Example 179, N-(6-(1,1-dioxido-4-oxo-1,2,5-thiadiazolidin-2-yl)-5-fluoro-7-hydroxynaphthalen-2-yl)-2-((trans)-4-(3-(2,6-dioxopiperidin-3-yl)-1-methyl-1H-indazol-6-yl)cyclohexyl)acetamide], for which the DC50 in assay [1] was 10 to 50 nM; in assay [2] it was 200 to 1000 nM.

Regarding `O=C1CCC(N2C(=O)c3cccc(NCC(=O)N4CCC(C(=O)NCCOc5ccc6cc(O)c(N7CC(=O)NS7(=O)=O)c(F)c6c5)CC4)c3C2=O)C(=O)N1` (stereo not drawn) [Example 1, N-(2-((7-(1,1-dioxido-4-oxo-1,2,5-thiadiazolidin-2-yl)-8-fluoro-6-hydroxynaphthalen-2-yl)oxy)ethyl)-1-((2-(2,6-dioxopiperidin-3-yl)-1,3-dioxoisoindolin-4-yl)glycyl)piperidine-4-carboxamide], the DC50 is 200 to 1000 nM in assay [1] and ≥ 1000 nM in assay [2].

In the case of `O=C1CCC(N2Cc3c(NCC(=O)N4CCC(C(=O)NCCOc5ccc6cc(O)c(N7CC(=O)NS7(=O)=O)c(F)c6c5)CC4)cccc3C2=O)C(=O)N1` (stereo not drawn) [Example 2, N-(2-((7-(1,1-dioxido-4-oxo-1,2,5-thiadiazolidin-2-yl)-8-fluoro-6-hydroxynaphthalen-2-yl)oxy)ethyl)-1-((2-(2,6-dioxopiperidin-3-yl)-1-oxoisoindolin-4-yl)glycyl)piperidine-4-carboxamide], the DC50 in assay [1] and in assay [2] was 200 to 1000 nM in each case.

Regarding `O=C1CCC(N2Cc3c(OCC(=O)N4CCC(C(=O)NCCOc5ccc6cc(O)c(N7CC(=O)NS7(=O)=O)c(F)c6c5)CC4)cccc3C2=O)C(=O)N1` (stereo not drawn) [Example 3, 1-[2-[2-(2,6-dioxo-3-piperidyl)-1-oxo-isoindolin-4-yl]oxyacetyl]-N-[2-[[8-fluoro-6-hydroxy-7-(1,1,4-trioxo-1,2,5-thiadiazolidin-2-yl)-2-naphthyl]oxy]ethyl]piperidine-4-carboxamide], the results for the DC50 in assay [1] and in assay [2] were 50 to 200 nM and 200 to 1000 nM, respectively.

As for `Cn1c(=O)n(C2CCC(=O)NC2=O)c2ccc(C3CCN(CC(=O)NCCOc4ccc5cc(O)c(N6CC(=O)NS6(=O)=O)c(F)c5c4)CC3)cc21` (stereo not drawn) [Example 4, N-(2-((7-(1,1-dioxido-4-oxo-1,2,5-thiadiazolidin-2-yl)-8-fluoro-6-hydroxynaphthalen-2-yl)oxy)ethyl)-2-(4-(1-(2,6-dioxopiperidin-3-yl)-3-methyl-2-oxo-2,3-dihydro-1H-benzo[d]imidazol-5-yl)piperidin-1-yl)acetamide], the DC50 in assay [1] was 50 to 200 nM; in assay [2], ≥ 1000 nM.

`O=C(CN1CCC(c2ccc3c(c2)oc(=O)n3C2CCC(=O)NC2=O)CC1)NCCOc1ccc2cc(O)c(N3CC(=O)NS3(=O)=O)c(F)c2c1` (stereo not drawn) [Example 5, 2-[4-[3-(2,6-dioxo-3-piperidyl)-2-oxo-1,3-benzoxazol-6-yl]-1-piperidyl]-N-[2-[[8-fluoro-6-hydroxy-7-(1,1,4-trioxo-1,2,5-thiadiazolidin-2-yl)-2-naphthyl]oxy]ethyl]acetamide]: the DC50 in assay [1] is 50 to 200 nM; in assay [2], ≥ 1000 nM.

Regarding `Cn1c(=O)n(C2CCC(=O)NC2=O)c2ccc(C3CCN(CCC(=O)NCCOc4ccc5cc(O)c(N6CC(=O)NS6(=O)=O)c(F)c5c4)CC3)cc21` (stereo not drawn) [Example 6, N-(2-((7-(1,1-dioxido-4-oxo-1,2,5-thiadiazolidin-2-yl)-8-fluoro-6-hydroxynaphthalen-2-yl)oxy)ethyl)-3-(4-(1-(2,6-dioxopiperidin-3-yl)-3-methyl-2-oxo-2,3-dihydro-1H-benzo[d]imidazol-5-yl)piperidin-1-yl)propanamide], the DC50 in assay [1] is 50 to 200 nM; in assay [2], ≥ 1000 nM.

For the molecule `O=C(CN1CCC(c2ccc3c4c(cccc24)C(=O)N3C2CCC(=O)NC2=O)CC1)NCCOc1ccc2cc(O)c(N3CC(=O)NS3(=O)=O)c(F)c2c1` (stereo not drawn) [Example 7, N-(2-((7-(1,1-dioxido-4-oxo-1,2,5-thiadiazolidin-2-yl)-8-fluoro-6-hydroxynaphthalen-2-yl)oxy)ethyl)-2-(4-(1-(2,6-dioxopiperidin-3-yl)-2-oxo-1,2-dihydrobenzo[cd]indol-6-yl)piperidin-1-yl)acetamide], the DC50 in assay [1] and in assay [2] was 10 to 50 nM each time.

For `Cn1nc(C2CCC(=O)NC2=O)c2ccc(C3CCN(CC(=O)NCCOc4ccc5cc(O)c(N6CC(=O)NS6(=O)=O)c(F)c5c4)CC3)cc21` (stereo not drawn) [Example 8, 2-[4-[3-(2,6-dioxo-3-piperidyl)-1-methyl-indazol-6-yl]-1-piperidyl]-N-[2-[[8-fluoro-6-hydroxy-7-(1,1,4-trioxo-1,2,5-thiadiazolidin-2-yl)-2-naphthyl]oxy]ethyl]acetamide], the results for the DC50 in assay [1] and in assay [2] were 10 to 50 nM and 50 to 200 nM, respectively.

`Cn1c(=O)n(C2CCC(=O)NC2=O)c2cccc(OC3CCN(CC(=O)NCCOc4ccc5cc(O)c(N6CC(=O)NS6(=O)=O)c(F)c5c4)CC3)c21` (stereo not drawn) [Example 9, 2-[4-[1-(2,6-dioxo-3-piperidyl)-3-methyl-2-oxo-benzimidazol-4-yl]oxy-1-piperidyl]-N-[2-[[8-fluoro-6-hydroxy-7-(1,1,4-trioxo-1,2,5-thiadiazolidin-2-yl)-2-naphthyl]oxy]ethyl]acetamide]: the values for the half-maximal degradation concentration (DC50) in assay [1] and in assay [2] were 50 to 200 nM and 200 to 1000 nM, respectively.

Regarding `O=C(CN1CCC(c2ccc(NC3CCC(=O)NC3=O)cc2F)CC1)NCCOc1ccc2cc(O)c(N3CC(=O)NS3(=O)=O)c(F)c2c1` (stereo not drawn) [Example 10, 2-[4-[4-[(2,6-dioxo-3-piperidyl)amino]-2-fluoro-phenyl]-1-piperidyl]-N-[2-[[8-fluoro-6-hydroxy-7-(1,1,4-trioxo-1,2,5-thiadiazolidin-2-yl)-2-naphthyl]oxy]ethyl]acetamide], the 50% degradation concentration (DC50) in assay [1] is 50 to 200 nM; in assay [2], ≥ 1000 nM.

Regarding `O=C(CCCCCn1cc(CNc2cccc3c2C(=O)N(C2CCC(=O)NC2=O)C3=O)nn1)NCCOc1ccc2cc(O)c(N3CC(=O)NS3(=O)=O)c(Cl)c2c1` (stereo not drawn) [Example 49], in assay [1], the 50% degradation concentration (DC50) was ≥ 1000 nM.

`O=C(CCOCCn1cc(CNc2cccc3c2C(=O)N(C2CCC(=O)NC2=O)C3=O)nn1)NCCOc1ccc2cc(O)c(N3CC(=O)NS3(=O)=O)cc2c1` (stereo not drawn) [Example 50]: the DC50 in assay [1] is ≥ 1000 nM.

As for `O=C(CCCCCn1cc(CNc2cccc3c2C(=O)N(C2CCC(=O)NC2=O)C3=O)nn1)NCCOc1ccc2cc(O)c(N3CC(=O)NS3(=O)=O)cc2c1` (stereo not drawn) [Example 51], the DC50 in assay [1] was ≥ 1000 nM.

Values taken from US20240383886A1, “Protein Tyrosine Phosphatase Degraders and Methods of Use Thereof” (CALICO LIFE SCIENCES LLC, priority 2019, published 2024).
